Assay results from US20080312128A1, “Cellular Biomarker Antioxidant Assay and Uses Thereof” (priority 2005, published 2008).
Read-outs that look alike come from different tables or passages of the source.

Assays:
ARPE-19 cells = conditions: confluent cell culture, MTT
JunB = assay: H2O2-induced JunB transcription in cultured RPE cells, qPCR; type: cell-based, human; conditions: for Fold change, JunB, 1-Hr / Fold change, JunB, 4-Hr: ARPE-19 cells
Experimental: (§1) Human retinal pigment epithelial (RPE) cells (ARPE-19) were cultured in DMEM/F12 media supplemented with 10% fetal bovine serum (FBS, Atlanta Biologicals, Norcross, Ga.) plus L-glutamine, penicillin, and streptomycin in an atmosphere of humidified 95% air and 5% CO2 at 37° C. until confluent in single wells of 6-well plates. The cells were initially grown in DMEM/F12 with FBS to reduce the time to reach confluence. Cells were then rinsed and fed with NR-1 media (BioSource, Camarillo, Calif.). NR-1 is a chemically defined tissue culture medium supplemented with EGF, insulin, hydrocortisone, and transferrin. After feeding with NR-1, the confluent cells were cultured for 3 days to stabilize gene expression.
(§2) The OS was not rinsed from the culture; rather, the NR-1 medium was aspirated and TRI Reagent (Sigma, St. Louis, Mo.) was immediately added to lyse the cells and stabilize the RNA at the designated time-points.
(§3) Total cellular RNA was isolated from the cells at time points 0, 1, and 4 hours using TRI reagent as described above using the protocol recommended by the manufacturer. The RNA was cleaned of trace DNA contaminants by treatment with DNA-Free (Ambion, Austin, Tex.) and the concentration was measured by spectrophotometry. The purified RNA was dissolved in DEPC-treated double distilled water at the concentration of 0.2 mg/ml. and stored at −80° C.
(§4) One μg of total cellular RNA was reversed transcribed (RT) in 20 μL of reaction volume using the Reverse Transcription System using the manufacturer's recommended protocol (Promega, Madison, Wis.). The RT product was diluted 1:5 with DNase-free water and quantitative PCR (qPCR) amplification was performed in 50 μl of buffer containing 1×SYBR® Green PCR Master mix (ABI), optimized forward and reverse qPCR primers and 5 μl of the 1:5 diluted RT product. The qPCR reaction was started at a 50° C. hold for 2 minutes, then 95° C. hold for 10 minutes, followed by 40 cycles of 95° C. for 15 seconds, and 60° C. for 1 minute. The reaction was performed using the ABI PRISM® 7700 Sequence Detection System.

CRYBA = conditions: ARPE-19 cells
Experimental: as §1, §2, §3, §4

HO-1 = assay: H2O2-induced HO-1 transcription in cultured RPE cells, qPCR; type: cell-based, human; conditions: for Fold change, HO-1, 1-Hr / Fold change, HO-1, 4-Hr: ARPE-19 cells
ATF3 = assay: H2O2-induced ATF3 transcription in cultured RPE cells, qPCR; type: cell-based, human; conditions: for Fold change in expression, ATF3, 1-Hr / Fold change in expression, ATF3, 4-Hr: ARPE-19 cells
Experimental: as §1, §2, §3, §4

FosB = conditions: ARPE-19 cells
Experimental: For OS studies, ARPE19 cells were incubated for 1 hour at 37° C. in conditioned NR-1 media containing 50-500 μM H202. Cells were either not rinsed (1-, 2-, and 4-hour isolations) or rinsed using the Media Rinse 2 method (4-, 8-, and 24-hour isolations). At designated time-points, NR-1 medium was aspirated and the total cellular RNA was immediately isolated in TRI reagent (Sigma). Single wells were used in each plate to minimize any influence of temperature shifts on gene expression. All procedures were performed in a dim red light environment to reduce any influence of light on gene expression. RNA was isolated either before the onset of OS(O-hour control), or at 1, 2, 4, 8, or 24 hours after the start of the 1-hour OS treatment.
Assays of oxidative stress as described above with RPE cells were performed using the “no touch” technique, to determine whether OS-specific responses of FosB gene expression occurred during the first 8 hours after induction of stress. In addition, a dose-response study of FosB gene expression was performed to determine whether the degree of OS could be quantified using this molecular response.
as §1, §2, §3, §4

cFos = assay: H2O2-induced c-Fos transcription in cultured RPE cells, qPCR; type: cell-based, human; conditions: for Fold change in expression, cFos, 1-Hr / Fold change in expression, cFos, 4-Hr: ARPE-19 cells
Experimental: as §1, §2, §3, §4

FosL = assay: H2O2-induced FosL transcription in cultured RPE cells, qPCR; type: cell-based, human
Experimental: as §1, with “After feeding with NR-1, the confluent cells were cultured for 3 days to stabilize gene expression.” left out
as §3, with “The purified RNA was dissolved in DEPC-treated double distilled water at the concentration of 0.2 mg/ml. and stored at −80° C.” left out
One μg of total cellular RNA was reversed transcribed (RT) in 20 μL of reaction volume using the Reverse Transcription System using the manufacturer's recommended protocol (Promega, Madison, Wis.). The RT product was diluted 1:5 with DNase-free water and quantitative PCR (qPCR) amplification was performed in 50 μl of buffer containing 1×SYBR® Green PCR Master mix (ABI), optimized forward and reverse qPCR primers and 5 μl of the 1:5 diluted RT product. […]

[1] = system: CRYAA, CRYBB, and CRYGS crystallin genes; assay: H2O2-induced transcription of crystallin genes in cultured RPE cells, qPCR; type: cell-based, human; conditions: 100 μM and 500 μM H2O2, 1 and 4 hours
Experimental: Transcription of the above-identified crystallin genes was quantified at 1 and 4 hours in cells exposed to 100 μM and 500 μM H2O2-induced OS, and compared to controls.

OO [H2O2]
~4 fold: Level of JunB transcriptional activation (JunB; 4 hours, all levels of OS ≧about 100 μM H2O2)
55%: 500 μM H2O2 for up to 4-hours as percent of dose required to induce 10% cell death (LD10) (ARPE-19 cells)
6 fold: Fold change, HO-1, 4-Hr (HO-1; 350 μM H2O2, 4 h) | Fold change, HO-1, 4-Hr (HO-1; 500 μM H2O2, 4 h) | Fold change in expression, FosB, 4-Hr (FosB; 100 μM H2O2, 4 h) | Fold change in expression, FosB, 1-Hr (FosB; 200 μM H2O2, 1 h) | Fold change in expression, FosB, 4-Hr (FosB; 200 μM H2O2, 4 h) | Fold change in expression, FosB, 1-Hr (FosB; 350 μM H2O2, 1 h)
20 fold: Fold change in expression, FosB, 4-Hr (FosB; 350 μM H2O2, 4 h)
32 fold: Fold change in expression, cFos, 4-Hr (cFos; 500 μM H2O2, 4 h)
12 fold: Fold change in expression, cFos, 1-Hr (cFos; 500 μM H2O2, 1 h)
~3 fold: Increase in ATF3 transcription (ATF3; 1 hour after OS)
up to 12 fold: Increase in transcription of c-Fos (maximum) (cFos; after 1 hour of OS, 0-500 μM H2O2)
3 fold: Fold change, JunB, 1-Hr (JunB; 500 μM H2O2, 1 h) | Fold change in expression, CRYBA, 4-Hr (CRYBA; 100 μM H2O2, 4 h) | Fold change in expression, CRYBA, 1-Hr (CRYBA; 350 μM H2O2, 1 h) | Fold change in expression, CRYBA, 4-Hr (CRYBA; 350 μM H2O2, 4 h) | Fold change in expression, ATF3, 4-Hr (ATF3; 200 μM H2O2, 4 h) | Fold change in expression, ATF3, 1-Hr (ATF3; 500 μM H2O2, 1 h) | Fold change in expression, cFos, 4-Hr (cFos; 200 μM H2O2, 4 h) | Increase in FosL transcription compared to controls (FosL; 4 hours after OS, highest OS dose)
−2 fold: Fold change in expression, CRYBA, 4-Hr (CRYBA; 50 μM H2O2, 4 h)
64 fold: Fold change in expression, FosB, 4-Hr (FosB; 500 μM H2O2, 4 h)
16 fold: Fold change in expression, FosB, 1-Hr (FosB; 500 μM H2O2, 1 h) | Fold change in expression, cFos, 4-Hr (cFos; 350 μM H2O2, 4 h)
4 fold: Fold change, JunB, 4-Hr (JunB; 200 μM H2O2, 4 h) | Fold change, JunB, 4-Hr (JunB; 350 μM H2O2, 4 h) | Fold change, JunB, 4-Hr (JunB; 500 μM H2O2, 4 h) | Fold change in expression, CRYBA, 1-Hr (CRYBA; 500 μM H2O2, 1 h) | Fold change in expression, CRYBA, 4-Hr (CRYBA; 500 μM H2O2, 4 h) | Fold change in expression, cFos, 1-Hr (cFos; 200 μM H2O2, 1 h)
does not induce: Induction of CRYAA, CRYBB, and CRYGS crystallin genes [1]
7 fold: Fold change in expression, cFos, 1-Hr (cFos; 350 μM H2O2, 1 h)
8 fold: Fold change, JunB, 4-Hr (JunB; 100 μM H2O2, 4 h) | Fold change, HO-1, 4-Hr (HO-1; 100 μM H2O2, 4 h) | Fold change, HO-1, 4-Hr (HO-1; 200 μM H2O2, 4 h) | Fold change in expression, ATF3, 4-Hr (ATF3; 350 μM H2O2, 4 h) | Elevation of c-Fos transcription over controls (cFos; after 4 hours of OS)
above 50 μM: H2O2 level above which HO-1 threshold response is seen (HO-1)
1 fold: Fold change, JunB, 4-Hr (JunB; 50 μM H2O2, 4 h) | Fold change in expression, CRYBA, 1-Hr (CRYBA; 100 μM H2O2, 1 h) | Fold change in expression, CRYBA, 4-Hr (CRYBA; 200 μM H2O2, 4 h) | Fold change in expression, cFos, 4-Hr (cFos; 50 μM H2O2, 4 h)
2 fold: Fold change in expression, CRYBA, 1-Hr (CRYBA; 200 μM H2O2, 1 h) | Fold change, HO-1, 1-Hr (HO-1; 50 μM H2O2, 1 h) | Fold change, HO-1, 4-Hr (HO-1; 50 μM H2O2, 4 h) | Fold change, HO-1, 1-Hr (HO-1; 100 μM H2O2, 1 h) | Fold change, HO-1, 1-Hr (HO-1; 200 μM H2O2, 1 h) | Fold change, HO-1, 1-Hr (HO-1; 350 μM H2O2, 1 h) | Fold change, HO-1, 1-Hr (HO-1; 500 μM H2O2, 1 h) | Fold change in expression, ATF3, 1-Hr (ATF3; 200 μM H2O2, 1 h) | Fold change in expression, ATF3, 1-Hr (ATF3; 350 μM H2O2, 1 h) | Fold change in expression, FosB, 1-Hr (FosB; 50 μM H2O2, 1 h) | Fold change in expression, FosB, 4-Hr (FosB; 50 μM H2O2, 4 h) | Fold change in expression, FosB, 1-Hr (FosB; 100 μM H2O2, 1 h) | Fold change in expression, cFos, 4-Hr (cFos; 100 μM H2O2, 4 h) | Increase in FosL transcription (FosL; after 1 hour of OS, 100 μM and 500 μM H2O2)
0 fold: Fold change, JunB, 1-Hr (JunB; 50 μM H2O2, 1 h) | Fold change, JunB, 1-Hr (JunB; 100 μM H2O2, 1 h) | Fold change, JunB, 1-Hr (JunB; 200 μM H2O2, 1 h) | Fold change, JunB, 1-Hr (JunB; 350 μM H2O2, 1 h) | Fold change in expression, CRYBA, 1-Hr (CRYBA; 50 μM H2O2, 1 h) | Fold change in expression, ATF3, 1-Hr (ATF3; 50 μM H2O2, 1 h) | Fold change in expression, ATF3, 4-Hr (ATF3; 50 μM H2O2, 4 h) | Fold change in expression, ATF3, 1-Hr (ATF3; 100 μM H2O2, 1 h) | Fold change in expression, ATF3, 4-Hr (ATF3; 100 μM H2O2, 4 h) | Fold change in expression, cFos, 1-Hr (cFos; 50 μM H2O2, 1 h) | Fold change in expression, cFos, 1-Hr (cFos; 100 μM H2O2, 1 h)
